Source: publication PMC12111648, “New Dimethoxyaryl-Sesquiterpene Derivatives with Cytotoxic Activity Against MCF-7 Breast Cancer Cells: From Synthesis to Topoisomerase I/II Inhibition and Cell Death Mechanism Studies” (International Journal of Molecular Sciences, 2025)
“Also recorded” adds a separate entry of the source.

Experiments:
human topoisomerase II = assay: TOP2 DNA relaxation / plasmid linearization assay; type: biochemical; conditions: 20 μM
Procedure: The ability to relax DNA conformations is a central function of topoisomerase enzymes. Several studies have associated some proapoptotic compounds with the ability to inhibit topoisomerase enzymes. The ability of the selected compounds to inhibit TOP1 or TOP2 activity was determined. In this experiment, daunorubicin was used as a positive control for TOP1/2 inhibition, as previously reported. […] It is important to note the potential for cardiotoxicity associated with some TOP2 inhibitors, which highlights the relevance of assessing compound 14c’s interaction with TOP2B. […] Future studies should include assays to evaluate the specific activity of 14c against both TOP2A and TOP2B to provide a more comprehensive safety profile, as isoform-selective TOP2 inhibitors may offer a therapeutic advantage by reducing adverse effects.
Topoisomerase II-mediated DNA cleavage was assessed using a plasmid linearization assay adapted from previously described methods. Supercoiled plasmid DNA (200 ng final concentration) was incubated with purified human topoisomerase II (10 U) in the presence or absence of test agents or a positive control. Reactions were carried out in a total volume of 20 μL, composed of 2 μL of 10× topoisomerase II reaction buffer, an appropriate volume of compound or control, and nuclease-free water. ATP (final concentration adjusted from a 20 mM stock) was freshly added to the reaction buffer immediately prior to use. Reactions were initiated by the addition of topoisomerase II and incubated at 37 °C for 30 min. To terminate the reactions, 2 μL of 10% SDS was added directly to the tubes while still in the 37 °C water bath, followed by the addition of 1.5 μL of 250 mM tetrasodium EDTA (pH 8.0) and 2 μL of proteinase K solution (0.8 mg/mL). […]
Figure 7 The effect of sesquiterpene aryl esters on TOP1- and TOP2-induced DNA relaxation was assessed. (A) The TOP1 inhibition assay evaluated the compounds (10c, 11c, 12c, 13c, and 14c) at a concentration of 20 μM in a DNA relaxation assay. […]

[1] = test system: caspases-3/7 in MCF-7 cells; assay: Caspase-Glo 3/7 assay; type: cell-based, human; conditions: MCF-7, 50 μM, 24 h, versus control
Procedure: Since ROS levels were increased in the MCF-7 cancer cell line in response to the compounds, it is important to determine whether this effect is associated with the onset of apoptotic cell death. […] Cells were treated with the selected compounds at 50 μM for 24 h, incubated in situ with the Caspase-Glo 3/7 marker assay, and then analyzed in a luminometer.
The activity of caspase 3/7 in MCF-7 cells treated with the compounds was determined using a Caspase-Glo-3/7 Assay kit from Promega (UK). This assay is a homogenous and luminescent method that measures the activity of caspase-3 and -7, which are essential for apoptosis. MCF-7 cells (1 × 10^4 cells per well) were seeded in a 96-well plate and incubated overnight. The cells were then treated for 24 h with the compounds (50 µM) and a blank as a control. After treatment, the Caspase-Glo® 3/7 reagent was prepared according to the manufacturer’s instructions. Specifically, 100 μL of the reagent was added to 100 μL of culture medium containing the treated cells in each well, and the mixture was incubated for 1 h at room temperature in the dark. Luminescence was then measured using a luminometer (Berthold Sirius Single Tube Luminometer). The fold change in caspase activity was calculated by expressing the average luminescence of each treatment as a fold change with respect to the average luminescence of the negative control.
Figure 6 The effect of the compounds on caspases-3/7 activity in cells from the human breast cancer cell line MCF-7. Caspases-3/7 activity was determined in MCF-7 cells following treatment with the compounds (50 μM) for 24 h. The data are reported as the ratio of activity in treated cells vs. the control (1% ethanol), which were arbitrarily assigned a unitary value. * p < 0.05 versus control cells (Ctrl). The data are reported as the mean values ± S.D. of three different experiments with samples in triplicate.

SMILES	inhibition of TOP2-induced DNA relaxation (human topoisomerase II)	caspases-3/7 activity [1]
COc1ccc(/C=C2\C(C)=CCC3C(C)(C)CCC[C@]23C)cc1OC (stereo partly drawn) [Compound 13c, (4aS)-5-((E)-3,4-Dimethoxybenzylidene)-1,1,4a,6-tetramethyl-1,2,3,4,4a,5,8,8a-octahydronaphthalene]	no inhibition	considerably enhanced
COc1cc2c(cc1OC)[C@]1(C)CCC3C(C)(C)CCC[C@]3(C)C1=C2 (stereo partly drawn) [Compound 14c, (6aR,11bS)-8,9-Dimethoxy-4,4,6a,11b-tetramethyl-2,3,4,4a,5,6,6a,11b-octahydro-1H-benzo[a]fluorene]	selectively inhibited topoisomerase II; also recorded: modified the TOP2-induced DNA relaxation pattern	activated caspases-3/7; also recorded: considerably enhanced
